Data taken from US20190203253A1, “METHODS OF IDENTIFYING AND TREATING CANCER PATIENTS WITH AN EPHB6 DEFICIENCY” (University of Saskatchewan, priority 2016, published 2019).
Entries after “also recorded” stand apart in the source; their conditions may differ.

Key:
[1] = tested on: MDA-pc3 and MDA-B6 TNBC tumors; test: Tumor xenograft study, tumor growth; type: in vivo, NOD-SCID mice; conditions: 5 mg/kg orally twice a day, MDA-pc3 vs MDA-B6 xenografts (FIG. 7A)
Method: FIG. 7. Analysis of the SL interaction between EPHB6 and SRC in TNBC cells and murine xenografts. A. MDA-pc3 and MDA-B6 cells were injected into the mammary fat pad region of 4-6 weeks old NOD-SCID mice (1×10^6 cells per mouse). Mice with detectable tumors were treated twice per day with 5 mg/kg KX2-391 in DMSO/water solvent or solvent alone by oral feeding (at least 6 animals per each experimental condition). Tumor size was measured every 3 days and tumor volume was calculated with the equation: A/2*B^2, where A was long and B was short diameter of the tumor. The reduction in tumor growth in KX2-391-treated mice is presented as a percentage relative to matching solvent controls. The graph summarizes two independent experiments. […] Four representative fields (at 3, 6, 9, and 12 o'clock) per each stained tumor section (one for each extracted tumor) were imaged at 100× magnification and the blood vessel density per each field was analyzed with the Image-Pro Premier software. […]
Breeder pairs of NOD SCID gamma mice were purchased from The Jackson Laboratory and a colony was established at the Laboratory Animal Services Unit, University of Saskatchewan. […] Digital caliper measurements were taken every 3 days and tumor volume was calculated by the formula A/2*B^2 (where A and B were the long and short diameters of the tumor respectively). […]

[2] = tested on: MDA-pc3 and MDA-B6 cells (MDA-MB-231); test: Drug sensitivity assay (resazurin), SRC inhibitors, MDA-MB-231-derived cells; type: cell-based, human; conditions: MDA-pc3 vs MDA-B6, increasing concentrations, 72 h, resazurin (FIG. 4A, 4B)
Method: FIG. 4. […] C. […] All experiments were performed at least three times.

[3] = tested on: co-cultured MDA-B6 and MDA-pc3 cells; test: Drug sensitivity assay with fluorescent co-cultured cells (flow cytometry), KX2-391; type: cell-based, human; conditions: GFP/RFP-labelled MDA-B6 and MDA-pc3 co-seeded in equal numbers, 25 nM, 72 h (FIGS. 4D, 4E)
Method: FIG. 4. SL interaction between EPHB6 and SRC. A. MDA-pc3 and MDA-B6 cells were cultured in 96-well plates with the indicated concentrations of SU6656 or matching volumes of DMSO for 72 h. Cells were stained with resazurin and fluorescence was measured using a SpectraMax M5 plate reader to determine cell suppression. Five wells were analyzed per condition. […] B. MDA-pc3 and MDA-B6 cells were cultured in 96-well plates with the indicated concentrations of KX2-391 or matching volumes of DMSO for 72 h. Cells were stained with resazurin and fluorescence was measured using a SpectraMax M5 plate reader to determine cell suppression. Five wells were analyzed per condition. […] C. MDA-B6 and MDA-pc3 cells were transduced with lentivirus encoding pLD-GFP-Puro or pLD-RFP-Puro as indicated. Cells were selected with 2 μg/mL puromycin for 48 h, cultured in monolayer, and imaged by confocal microscopy at 100× magnification. […] Cells were collected and analyzed by flow cytometry and the FlowJo software. […] Cells were collected and analyzed by flow cytometry and the FlowJo software. […]
For color assays, MDA-B6-GFP and MDA-pc3-RFP, or MDA-B6-RFP and MDA-pc3-GFP cells were co-seeded in equal numbers in 12-well plates at indicated cell densities. […] Treated cells were collected and quantitated by flow cytometry. Results were analyzed using the FlowJo software (FLOWJO LLC, Ashland, Oreg., USA).

## O=C(Cc1ccc(-c2ccc(OCCN3CCOCC3)cc2)cn1)NCc1ccccc1 [KX2-391]
[1]
  suppression of tumor growth, EPHB6-deficient vs EPHB6-expressing tumors: more efficiently suppresses growth of EPHB6-deficient TNBC tumors; also recorded: significantly more effective in suppressing EPHB6-deficient TNBC tumors
[2]
  cell suppression relative to DMSO control, EPHB6-deficient vs EPHB6-expressing cells: significantly stronger suppression of EPHB6-deficent cells
[3]
  cell suppression in co-culture monitored by flow cytometry: EPHB6-deficient cells are much less resistant to SRC inhibition
